Assay results published in patent publication US20040023935A1, “Inhalation compositions, methods of use thereof, and process for preparation of same” (Dey, L.P., priority 2002, published 2004).
In brackets after ≈: the same amount, converted by molar mass.

Key:
[1] = Amount of fluticasone solubilized in aqueous TPGS composition, by order of addition/mixing; type: physicochemical; settings: target concentration 180 mcg/ml; for solubility: aqueous TPGS composition, aqueous with cosolvent or surfactant or cyclodextrin
Protocol: In one embodiment, the drug is dissolved in the surfactant, such as molten TPGS, and then added to water. For example, when fluticasone propionate is prepared this way with a target concentration of 180 mcg/ml, the amount solubilized by addition of molten TPGS containing the drug to water is about 180 mcg/mL. The amount solubilized by addition of water to molten TPGS, followed by addition of the drug, is only 77 mcg/mL. If the aqueous phase is added to the molten TPGS, the TPGS phase forms a gel and this, apart from making the mixing process slower, makes the amount solubilized lower and variable.
Thus, in Process 1, aqueous phase is added to a solution of the drug in molten TPGS. In Process 2, a solution of the drug in molten TPGS is added to the aqueous phase. To avoid gel formation, the TPGS phase is added to the aqueous phase and slowly. Rapid addition may form gel. Also, high speed mixing reduces the formation of gel.

[2] = Fluticasone solubilized in molten surfactant phase at 60° C.; type: physicochemical
Protocol: Whether the cosolvent, if present, is added to either the molten TPGS phase or the aqueous phase prior to mixing of the concentrate and the aqueous phase has been found herein to affect the stability of the resulting diluted composition. […] Cosolvents such as propylene glycol (PG) and polyethylene glycol 400 (PEG 400) can influence the amount solubilized by affecting the amount dissolved in the molten TPGS phase.
However, the order of addition influences the amount of drug that may be solubilized. If PG or PEG 400 is added in the molten TPGS phase before adding the drug, the amount solubilized increases (see Table 6b, below).

SMILES	Amount solubilized as percent of theoretical concentration, Mean ([1]; Process 1 (Aqueous phase added to the TPGS phase all at once and then mixed)) [%]	Amount solubilized as percent of theoretical concentration, Mean ([1]; Process 2 (TPGS phase added to aqueous phase slowly with mixing)) [%]	Fluticasone solubilized in molten surfactant phase at 60° C. ([2]; Surfactant phase: TPGS alone)	Fluticasone solubilized in molten surfactant phase at 60° C. ([2]; Surfactant phase: TPGS and polyethylene glycol 400 (1:1))	Fluticasone solubilized in molten surfactant phase at 60° C. ([2]; Surfactant phase: TPGS and propylene glycol (2.4:1))	solubility ([1]; addition of molten TPGS containing the drug to water) [µg/mL]	solubility ([1]; addition of water to molten TPGS, followed by addition of the drug) [µg/mL]
C[C@@H]1C[C@H]2[C@@H]3C[C@H](F)C4=CC(=O)C=C[C@]4(C)[C@@]3(F)[C@@H](O)C[C@]2(C)[C@@]1(O)C(=O)SCF [Fluticasone, (6α,9α,11α,16α,17α)-6,9-difluoro-11-hydroxy-16-methyl-3-oxo-17-hydroxyandrosta-1,4-diene-17-carbothioic acid, S-fluoromethyl ester]	93.64	99.53	6.5 mg/g of TPGS	20.0 mg/g of TPGS	11.9 mg/g of TPGS		
CCC(=O)O[C@]1(C(=O)SCF)[C@H](C)C[C@H]2[C@@H]3C[C@H](F)C4=CC(=O)C=C[C@]4(C)[C@@]3(F)[C@@H](O)C[C@@]21C [fluticasone propionate, (6α,9α,11α,16α,17α)-6,9-difluro-11-hydroxy-16-methyl-3-oxo-17-(1-oxopropoxy)androsta-1,4-diene-17-carbothioic acid, S-fluoromethyl ester]						~180 (≈ 360 µM)	77 (≈ 154 µM)
